Results from patent US9278942B2, “Non-steroidal compounds as androgen receptor modulators” (FLX Discoveries Oy, priority 2011, dated 2016).
Substitutions are numbered along the chain they refer to.

How the values were obtained:
[1] = target: T1, human AR (Homo sapiens, UniProt P10275); test: AR antagonism assay: inhibition of transcriptional activation of AR (Probasin-luc reporter, COS-1 cells); assay type: cell-based; conditions: compound 10.0 μM; relative luciferase response: 100% for testosterone (no antiandrogenic effect), 0% for complete antagonism
T1 construct: expressed in transfected cells; host or cells: COS-1
T1 sequence (P10275 1-920): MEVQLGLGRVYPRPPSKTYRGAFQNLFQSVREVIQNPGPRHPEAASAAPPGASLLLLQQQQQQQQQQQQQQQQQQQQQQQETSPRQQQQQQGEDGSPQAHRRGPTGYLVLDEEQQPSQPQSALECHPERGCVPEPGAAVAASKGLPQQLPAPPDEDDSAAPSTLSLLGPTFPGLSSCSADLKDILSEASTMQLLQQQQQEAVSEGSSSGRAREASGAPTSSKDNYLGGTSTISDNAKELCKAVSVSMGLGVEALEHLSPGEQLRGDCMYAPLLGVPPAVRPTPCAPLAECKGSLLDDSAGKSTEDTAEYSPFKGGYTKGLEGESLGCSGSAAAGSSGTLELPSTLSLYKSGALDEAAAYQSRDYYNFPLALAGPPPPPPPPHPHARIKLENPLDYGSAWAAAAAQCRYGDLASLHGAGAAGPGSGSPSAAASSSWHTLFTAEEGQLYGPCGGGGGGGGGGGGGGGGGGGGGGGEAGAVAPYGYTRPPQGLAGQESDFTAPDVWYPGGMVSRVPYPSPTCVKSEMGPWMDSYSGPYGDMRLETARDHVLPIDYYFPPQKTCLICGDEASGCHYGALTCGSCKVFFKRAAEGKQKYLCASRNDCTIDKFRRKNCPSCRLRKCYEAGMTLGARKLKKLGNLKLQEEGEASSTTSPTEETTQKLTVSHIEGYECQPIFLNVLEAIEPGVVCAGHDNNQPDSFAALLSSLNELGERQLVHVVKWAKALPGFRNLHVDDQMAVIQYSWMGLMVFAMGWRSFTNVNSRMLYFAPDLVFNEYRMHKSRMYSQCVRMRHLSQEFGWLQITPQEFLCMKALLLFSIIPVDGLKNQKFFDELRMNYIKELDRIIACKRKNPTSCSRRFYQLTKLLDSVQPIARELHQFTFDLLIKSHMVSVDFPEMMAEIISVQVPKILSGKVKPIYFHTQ
Summary of the method: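 COS-1 cells transfected 24 h with human AR vector, Probasin-luc reporter and β-gal control, then exposed 18 h at 37 °C to 10 μM compound plus 100 nM testosterone. Luciferase read-out normalised to β-galactosidase activity and protein content.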

[2] = target: T2, LNCaP (containing an AR mutation) (Homo sapiens, UniProt P10275, T878A); conditions: LNCaP prostate cancer cells; cited from earlier work
T2 sequence (P10275 1-920 T878A): T1 sequence (P10275 1-920) with T878A

CC(C)(O)C(=O)Nc1ccc([N+](=O)[O-])c(C(F)(F)F)c1 [Hydroxyflutamide, reference compound]
AR antagonism against 100 nM testosterone ± S.D. [1]: 13.0 ± 1.1% | Activity of hydroxyflutamide at the AR mutation of LNCaP cells [2]: agonist
